Laboratory results taken from ChEMBL document CHEMBL4351029, “Design and evaluation of pyrazolopyrimidines as KCNQ channel modulators” (Bioorg Med Chem Lett, 2019).

Experiments:
[1] = target: Voltage-gated potassium channel, KQT; KCNQ2(Kv7.2)/KCNQ3(Kv7.3) (Homo sapiens, UniProt O43525+O43526); assay: Agonist activity at human KCNQ2/3 expressed in HEK293 cells by FLIPR based thallium influx assay; assay type: cell-based
[2] = target: Voltage-gated potassium channel, KQT; KCNQ2(Kv7.2)/KCNQ3(Kv7.3) (Homo sapiens) (UniProt O43526+O43525); assay: Agonist activity at human KCNQ2/3 expressed in HEK293 cells by FLIPR based thallium influx assay relative to retigabine; assay type: cell-based
[3] = test system: Rattus norvegicus; assay: Antiallodynic activity in ip dosed rat model of capsaicin-induced mechanical hyperalgesia assessed as increase in paw withdrawal threshold administered 30 mins before capsaicin addition; assay type: functional, organism-based
[4] = test system: Rattus norvegicus; assay: Antiallodynic activity in rat model of capsaicin-induced mechanical hyperalgesia assessed as increase in paw withdrawal threshold at 10 mg/kg, ip administered 30 mins before capsaicin addition relative to control; assay type: functional
[5] = AUC in rat at 1 mg/kg, po; assay type: ADME, organism-based; conditions: in vivo
[6] = test system: Rattus norvegicus; assay: Antiallodynic activity in rat model of capsaicin-induced mechanical hyperalgesia assessed as increase in paw withdrawal threshold at 3 mg/kg, ip administered 30 mins before capsaicin addition relative to control; assay type: functional
[7] = Plasma clearance in rat at 1 mg/kg. iv; assay type: ADME, organism-based
[8] = test system: Rattus norvegicus; assay: Antiallodynic activity in rat model of capsaicin-induced mechanical hyperalgesia assessed as increase in paw withdrawal threshold at 30 mg/kg, ip administered 30 mins before capsaicin addition relative to control; assay type: functional
[9] = Half life in rat at 1 mg/kg, iv; assay type: ADME, organism-based; conditions: in vivo
[10] = Oral bioavailability in rat at 1 mg/kg; assay type: ADME, organism-based; conditions: in vivo
[11] = Ratio of drug level in brain to plasma in rat; assay type: ADME; conditions: read-out: BPR
[12] = test system: Rattus norvegicus; assay: Antiallodynic activity in rat model of capsaicin-induced mechanical hyperalgesia assessed as increase in paw withdrawal threshold at 100 mg/kg, ip administered 30 mins before capsaicin addition relative to control; assay type: functional

Voltage-gated potassium channel, KQT; KCNQ2(Kv7.2)/KCNQ3(Kv7.3), sequence (O43526 whole entry): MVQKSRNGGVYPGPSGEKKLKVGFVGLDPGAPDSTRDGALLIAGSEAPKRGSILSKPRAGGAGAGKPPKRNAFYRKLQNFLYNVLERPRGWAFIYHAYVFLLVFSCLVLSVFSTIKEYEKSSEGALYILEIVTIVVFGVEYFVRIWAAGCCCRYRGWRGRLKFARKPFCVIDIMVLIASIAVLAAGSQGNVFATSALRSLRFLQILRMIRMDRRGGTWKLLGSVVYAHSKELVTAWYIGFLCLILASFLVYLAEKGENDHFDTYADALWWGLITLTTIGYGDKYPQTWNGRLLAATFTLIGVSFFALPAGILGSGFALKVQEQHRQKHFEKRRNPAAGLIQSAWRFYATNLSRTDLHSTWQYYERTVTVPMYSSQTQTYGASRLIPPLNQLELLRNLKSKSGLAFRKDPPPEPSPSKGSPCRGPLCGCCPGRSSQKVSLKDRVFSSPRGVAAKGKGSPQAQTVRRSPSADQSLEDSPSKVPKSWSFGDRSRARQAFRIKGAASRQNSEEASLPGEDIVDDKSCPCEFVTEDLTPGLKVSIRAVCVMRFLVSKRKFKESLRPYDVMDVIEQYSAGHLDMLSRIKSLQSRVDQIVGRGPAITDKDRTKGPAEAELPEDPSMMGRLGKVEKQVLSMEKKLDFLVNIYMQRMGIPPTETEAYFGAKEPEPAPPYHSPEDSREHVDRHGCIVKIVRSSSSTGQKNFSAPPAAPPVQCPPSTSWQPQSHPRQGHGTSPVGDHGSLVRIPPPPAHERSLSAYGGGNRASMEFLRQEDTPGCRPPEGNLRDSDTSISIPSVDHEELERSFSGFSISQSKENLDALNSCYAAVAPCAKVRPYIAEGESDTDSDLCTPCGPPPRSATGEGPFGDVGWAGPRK
Voltage-gated potassium channel, KQT; KCNQ2(Kv7.2)/KCNQ3(Kv7.3), sequence (O43525 whole entry): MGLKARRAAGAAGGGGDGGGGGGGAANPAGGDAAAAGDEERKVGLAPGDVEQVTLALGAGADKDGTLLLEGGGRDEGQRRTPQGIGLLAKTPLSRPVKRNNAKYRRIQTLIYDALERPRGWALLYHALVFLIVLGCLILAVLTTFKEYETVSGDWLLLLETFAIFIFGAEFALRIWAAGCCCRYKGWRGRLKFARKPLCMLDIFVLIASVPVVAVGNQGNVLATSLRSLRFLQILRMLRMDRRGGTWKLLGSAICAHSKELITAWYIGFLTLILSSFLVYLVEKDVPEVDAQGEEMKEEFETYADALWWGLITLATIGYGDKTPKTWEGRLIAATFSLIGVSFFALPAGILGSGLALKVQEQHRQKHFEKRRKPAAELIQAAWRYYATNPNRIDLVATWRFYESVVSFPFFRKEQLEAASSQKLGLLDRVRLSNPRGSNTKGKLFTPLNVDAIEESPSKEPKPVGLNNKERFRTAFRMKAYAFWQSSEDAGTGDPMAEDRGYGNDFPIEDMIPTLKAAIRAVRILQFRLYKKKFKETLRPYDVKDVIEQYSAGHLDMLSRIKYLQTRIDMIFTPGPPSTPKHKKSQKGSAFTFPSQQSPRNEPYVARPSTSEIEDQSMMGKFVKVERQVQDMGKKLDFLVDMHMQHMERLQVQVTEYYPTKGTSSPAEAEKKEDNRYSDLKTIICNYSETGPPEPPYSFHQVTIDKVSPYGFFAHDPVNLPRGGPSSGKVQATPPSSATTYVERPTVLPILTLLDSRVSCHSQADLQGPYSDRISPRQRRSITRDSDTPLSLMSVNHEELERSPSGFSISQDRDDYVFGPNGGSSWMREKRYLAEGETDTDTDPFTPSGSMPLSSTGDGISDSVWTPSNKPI

Cc1cc(C)n2nc(NC(=O)CC(C)(C)C)c(-c3ccc(F)c(C)c3)c2n1
EC50 [1]: 50 nM

CC(C)(C)CC(=O)Nc1nn2cccnc2c1-c1ccccc1
Emax [2]: 26%

O=C(CC1CCCCC1)Nc1nn2cccnc2c1-c1ccccc1
Emax [2]: 133%
EC50 [1]: 290 nM

O=C(Nc1nn2cccnc2c1-c1ccccc1)C1CCCCC1
Emax [2]: 8%

Cc1cnc2c(-c3ccc(F)c(C)c3)c(NC(=O)CC(C)(C)C)nn2c1
Emax [2]: 159%
EC50 [1]: 590 nM

CC(C)(C)CC(=O)Nc1nn2cccnc2c1-c1ccc(F)cc1
EC50 [1]: 6800 nM

O=C(CC1CCCC1)Nc1nn2cccnc2c1-c1ccc(F)cc1
Emax [2]: 100%
EC50 [1]: 1000 nM

O=C(CCC1CCCC1)Nc1nn2cccnc2c1-c1ccc(C(F)(F)F)cc1
EC50 [1]: 50 nM

CC(C)(C)CC(=O)Nc1nn2cccnc2c1-c1ccc(OC(F)(F)F)cc1
Activity [3]: Dose-dependent effect
Activity [4]: 26%
AUC [5]: 706 ng·h/mL
Activity [6]: 10%
clearance [7]: 13.3 mL/min/kg
EC50 [1]: 410 nM
Activity [8]: 52%
half-life [9]: 1.9 h
bioavailability [10]: 56%
Kp [11]: 3.8

Cc1cc(C)n2nc(NC(=O)CCC3CCCC3)c(-c3ccc(F)c(C)c3)c2n1
Emax [2]: 205%
EC50 [1]: 70 nM

Cc1cc(-c2c(NC(=O)CCC3CCCC3)nn3cccnc23)ccc1F
Emax [2]: 169%
EC50 [1]: 180 nM

Cc1cnc2c(-c3ccc(F)c(C)c3)c(NC(=O)CCC3CCCC3)nn2c1
EC50 [1]: 80 nM

Cc1cc(C)n2nc(NC(=O)CC3CCCC3)c(-c3ccc(F)c(C)c3)c2n1
Emax [2]: 165%
EC50 [1]: 70 nM

Cc1cnc2c(-c3ccc(F)c(C)c3)c(NC(=O)CC3CCCC3)nn2c1
Emax [2]: 168%
EC50 [1]: 140 nM

CC(C)(C)c1ccnc2c(NC(=O)Cc3cc(F)cc(F)c3)cnn12
Emax [2]: 149%
EC50 [1]: 910 nM

CCOC(=O)Nc1ccc(NCc2ccc(F)cc2)nc1N [FLUPIRTINE]
Emax [2]: 112%
EC50 [1]: 560 nM

Cc1cc(-c2c(NC(=O)CC(C)(C)C)nn3cccnc23)ccc1F
Emax [2]: 135%
EC50 [1]: 2310 nM

O=C(CCC1CCCCC1)Nc1nn2cccnc2c1-c1ccccc1
EC50 [1]: 130 nM

Cc1cc(-c2c(NC(=O)CC3CCCC3)nn3cccnc23)ccc1F
Emax [2]: 139%
EC50 [1]: 1170 nM

CC(C)(C)CC(=O)Nc1nn2cccnc2c1-c1ccc(C(F)(F)F)cc1
Emax [2]: 113%
EC50 [1]: 140 nM

NCC1(CC(=O)O)CCCCC1 [GABAPENTIN]
Activity [12]: 70%

O=C(CC1CCCC1)Nc1nn2cccnc2c1-c1ccc(C(F)(F)F)cc1
Emax [2]: 28%

O=C(Nc1nn2cccnc2c1-c1ccc(F)cc1)C1CCCC1
Emax [2]: 20%
EC50 [1]: > 32000 nM

CC(C)(C)CC(=O)Nc1nn2c(C(C)(C)C)ccnc2c1-c1ccc(OC(F)(F)F)cc1
EC50 [1]: > 32000 nM

CCOC(=O)Nc1ccc(NCc2ccc(F)cc2)cc1N [EZOGABINE]
Emax [2]: 99%
EC50 [1]: 4380 nM

O=C(CCC1CCCC1)Nc1nn2cccnc2c1-c1ccc(F)cc1
EC50 [1]: 140 nM

O=C(CCC1CCCC1)Nc1nn2cccnc2c1-c1ccc(OC(F)(F)F)cc1
EC50 [1]: 310 nM

O=C(CC1CCCC1)Nc1nn2cccnc2c1-c1ccc(OC(F)(F)F)cc1
Emax [2]: 88%
EC50 [1]: 190 nM
